A compilation of properties of binary mixtures (doi:10.1016/j.molliq.2016.01.096)

Assay: xn = mol fraction of the nth substance listed
Details: 100 kPa

Question: For `CCOCCO` + CCOS(=O)(=O)[O-].CC[n+]1ccn(C)c1, which speed of sound (298.15 K, x1 = 0.1202) is on record?
Answer: 1654.9 m/s

Question: And the speed of sound (298.15 K, x1 = 0.1846)?
Answer: 1638.2 m/s

Question: And the speed of sound (298.15 K, x1 = 0.3548)?
Answer: 1586.6 m/s

Question: And the speed of sound (298.15 K, x1 = 0.5511)?
Answer: 1516.8 m/s

Question: And the speed of sound (298.15 K, x1 = 0.6529)?
Answer: 1476.3 m/s

Question: And the speed of sound (298.15 K, x1 = 0.9094)?
Answer: 1356.8 m/s

Question: And the speed of sound (298.15 K, x1 = 0.9512)?
Answer: 1333.2 m/s

Question: What about the speed of sound (298.15 K, x1 = 1) of the same molecule?
Answer: 1302.8 m/s

Question: And the speed of sound (308.15 K, x1 = 0.1202)?
Answer: 1630.3 m/s

Question: And the speed of sound (308.15 K, x1 = 0.1846)?
Answer: 1613.2 m/s

Question: What about the speed of sound (308.15 K, x1 = 0.2326) of the same molecule?
Answer: 1599.2 m/s

Question: And the speed of sound (308.15 K, x1 = 0.3548)?
Answer: 1560.3 m/s

Question: And the speed of sound (308.15 K, x1 = 0.4516)?
Answer: 1526.4 m/s

Question: What about the speed of sound (308.15 K, x1 = 0.5511) of the same molecule?
Answer: 1488.9 m/s

Question: What about the speed of sound (308.15 K, x1 = 0.6529) of the same molecule?
Answer: 1447.6 m/s

Question: What about the speed of sound (308.15 K, x1 = 0.9094) of the same molecule?
Answer: 1324.7 m/s

Question: And the speed of sound (308.15 K, x1 = 0.9512)?
Answer: 1300.2 m/s

Question: And the speed of sound (308.15 K, x1 = 1)?
Answer: 1268.6 m/s

Question: What about the speed of sound (318.15 K, x1 = 0.0588) of the same molecule?
Answer: 1620.5 m/s

Question: And the speed of sound (318.15 K, x1 = 0.1846)?
Answer: 1588.4 m/s

Question: What about the speed of sound (318.15 K, x1 = 0.3548) of the same molecule?
Answer: 1534.4 m/s

Question: And the speed of sound (318.15 K, x1 = 0.4516)?
Answer: 1499.8 m/s

Question: What about the speed of sound (318.15 K, x1 = 0.5511) of the same molecule?
Answer: 1461.4 m/s

Question: What about the speed of sound (318.15 K, x1 = 0.6529) of the same molecule?
Answer: 1419.1 m/s

Question: And the speed of sound (318.15 K, x1 = 0.741)?
Answer: 1379.3 m/s

Question: What about the speed of sound (318.15 K, x1 = 0.8273) of the same molecule?
Answer: 1336.7 m/s

Question: And the speed of sound (318.15 K, x1 = 0.8658)?
Answer: 1316.4 m/s

Question: What about the speed of sound (318.15 K, x1 = 0.9094) of the same molecule?
Answer: 1291.9 m/s

Question: And the speed of sound (318.15 K, x1 = 0.9512)?
Answer: 1266.4 m/s

Question: And the speed of sound (318.15 K, x1 = 1)?
Answer: 1233.3 m/s

Question: What about the speed of sound (328.15 K, x1 = 0.1202) of the same molecule?
Answer: 1581.6 m/s

Question: And the speed of sound (328.15 K, x1 = 0.1846)?
Answer: 1563.9 m/s

Question: What about the speed of sound (328.15 K, x1 = 0.3548) of the same molecule?
Answer: 1509 m/s

Question: And the speed of sound (328.15 K, x1 = 0.4516)?
Answer: 1473.7 m/s

Question: What about the speed of sound (328.15 K, x1 = 0.6529) of the same molecule?
Answer: 1390.8 m/s

Question: And the speed of sound (328.15 K, x1 = 0.8273)?
Answer: 1305.7 m/s

Question: What about the speed of sound (328.15 K, x1 = 0.9094) of the same molecule?
Answer: 1259.3 m/s

Question: What about the speed of sound (328.15 K, x1 = 0.9512) of the same molecule?
Answer: 1232.9 m/s

Question: And the speed of sound (328.15 K, x1 = 1)?
Answer: 1198.8 m/s

Question: Which results are given for `CCOS(=O)(=O)[O-].CC[n+]1ccn(C)c1` + CCOCCO?
Answer: speed of sound (298.15 K, x2 = 0): 1680.8 m/s; speed of sound (318.15 K, x2 = 0): 1632.4 m/s; speed of sound (328.15 K, x2 = 0): 1608.9 m/s
